Tests used:
PC3 cells = assay: Cell viability, EPHA2-expressing PC3; assay type: cell-based; conditions: for Payload LD50: corresponding payload alone; for GI50: Homo sapiens, PC-3, corresponding payload alone
Method: (§2) HCC1954 (American Type Culture Collection (ATCC)) breast ductal carcinoma cells were plated at 2000 cells/well in flat bottom 96-well tissue culture plates (Corning) in a total volume of 90 μL tissue culture medium supplemented with 10% fetal bovine serum (ThermoFisher Scientific). Cells were treated with a 3-fold serial dilution of compound from 200 nM to 0.03 nM. Each concentration was tested in triplicate. At the time of treatment, a plate of untreated cells was evaluated using CellTiter-Glo®2.0 Luminescent Cell Viability Assay according to the manufacturer's recommendations (Promega; #G9241). CellTiter-Glo® 2.0 reagent was added to the medium, incubated, and assayed on an EnVision Multilabel Reader (PerkinElmer). Values represent time zero (TO). […] Percentage growth inhibition was calculated as: [(T144-T0)/(C-TO)]×100 for concentrations for which T144>/=TO or [(T144-T0)/T0]×100 for concentrations for which T144<TO. The dose response curve plots were generated using Prism 7 (Graphpad) and fit using nonlinear regression analysis and the log(inhibitor) versus response-variable slope (four parameters).

THP1.1 = assay: Payload cell potency and lethality CTGlo 72 h, THP1.1; assay type: cell-based; conditions: for CTGlo-AT S GMean LD50 (nM) 72 h THP1.1: payload; for GI50: read-out: CTGlo-AT S GMean GI50 (nM) Ad2.2 HELA.2
Caco-2 cells = assay: Caco-2 permeability of ADC payload; assay type: in vitro ADME; conditions: for Perm. Mean Caco-2 A-B Perm (10e-6 cm/s) / Perm. Mean Caco-2 B-A Perm (10e-6 cm/s): corresponding free payload of the ADC
Method: (§1) Integrity of cell monolayer was confirmed by TEER (transepithelial electrical resistance) and Lucifer yellow. Payloads were spiked in duplicate at 10 μM, separately, on both sides of the cell monolayer. Permeability rates from the apical to basolateral (A-B) direction and the basolateral to apical (B-A) direction were determined by sampling aliquots from both chambers immediately after treatment (t=0) and following incubation for 2 hours. Samples were protein precipitated with organic solvent containing internal standard and analyzed by LC-MS/MS (SCIEX; API 5500). The area ratio responses of payload/internal standard over time in both directions were used to generate permeability (cm/see) values. Efflux ratio was calculated by dividing B-A/A-B. Control compounds for low and high permeability and efflux behaved as expected.

[1] = Caco-2 permeability of ADC payload; assay type: in vitro ADME; conditions: human, Caco-2, payload; for efflux ratio at 2 h, 10 μM: B-A/A-B, read-out: Eflux ratio
Method: as §1

Ad2.2 pre-mRNA splicing = assay: In vitro splicing (IVS) RT-qPCR, Ad2.2 pre-mRNA, HeLa nuclear extract; assay type: biochemical; conditions: payload of the ADC; read-out: qPCR-IVS-AT S GMean IC50 (nM) Ad2.2 HELA.2
Method: To evaluate payload activity in a cell-free system, an in vitro splicing assay was performed. The payloads were incubated with nuclear extracts and pre-mRNA substrate minigenes.
HeLa nuclear extract preparation: HeLa S3 cell pellets were resuspended in hypotonic buffer (10 mM HEPES pH 7.9, 1.5 mM MgCl2, 10 mM KCl, 0.2 mM PMSF, 0.5 mM DTT) and the suspension was brought up to a total of 5 packed cell volume (PCV). After centrifugation, the supernatant was discarded, and the cells were brought up to 3 PCV with hypotonic buffer and incubated on ice for 10 min. Cells were lysed using a dounce homogenizer and then centrifuged. […]. The nuclei were gently mixed for 30 min before centrifuging. The supernatant (nuclear extract) was then dialyzed into storage buffer (20 mM HEPES pH 7.9, 100 mM KCl, 0.2 mM EDTA, 20% glycerol, 0.2 mM PMSF, 0.5 mM DTT). Protein concentration was determined using NanoDrop 8000 UV-Vis spectrophotometer (ThermoFisher Scientific).
IVS: All Ad2-derived sequences (Pellizzoni et al. (1998) Cell 95(5):615-24) were cloned into pcDNA3.1(+) vector (Promega) using 5′ EcoRI and 3′ Xbal restriction sites. The plasmids were linearized using Xbal and used as DNA templates in in vitro transcription reactions. The FtzΔi intron-less plasmid (Luo and Reed (1999) 96(26):14937-42) was linearized using EcoRI. All RNAs were in vitro transcribed and then purified using MEGAScript T7 (Invitrogen) and MegaClear (Invitrogen) kits, respectively. For splicing reactions using Ad2 variant pre-mRNAs, 1 μL reactions were prepared using 8 μg nuclear extracts prepared from HeLa S3, 2 ng pre-mRNA, 0.2 ng FTZΔi, and varying concentrations of compounds or DMSO. After a 15 min pre-incubation at 30° C., 1 μL splicing activation buffer (0.5 mM ATP, 20 mM creatine phosphate, 1.6 mM MgCl2) was added, and the reactions were incubated for 90 min at 30° C. The reactions were then quenched with 13 μL DMSO, and 25 nL was used for RT-qPCR. RT-qPCR reactions were prepared using TaqMan RNA-to-CT 1-step kit (Life Technologies), RNA from splicing reactions, Ad2 (forward: […]; reverse: […]; probe: […]) and Ftz (forward: […]; reverse: […]; probe: […]) mRNA primer-probe sets. Prism 7 (Graphpad) was used for non-linear regression curve fitting of the formed spliced product and normalized to the control (DMSO) sample. […] In the presence of payload, a decrease in the amount of spliced product was observed.

HCC1954 cells = assay: Cell viability CellTiter-Glo, HCC1954; assay type: cell-based; conditions: unconjugated payload of the ADC
Method: as §2
(§3) HCC1954 (ATCC), 2000 cells/well), N87 (ATCC, 4000 cells/well), SKBR3 (ATCC, 3000 cells/well), and MCF7 (ATCC, 1500 cells/well) cell lines were used.

Ad2.1 pre-mRNA splicing = assay: In vitro splicing (IVS) RT-qPCR, Ad2.1 pre-mRNA, HeLa nuclear extract; assay type: biochemical; conditions: payload of the ADC; read-out: qPCR-IVS-AT S Gmean IC50 (nm) Ad2.1 HELA.2
Method: HeLa nuclear extract preparation: HeLa S3 cell pellets were resuspended in hypotonic buffer (10 mM HEPES pH 7.9, 1.5 mM MgCl2, 10 mM KCl, 0.2 mM PMSF, 0.5 mM DTT) and the suspension was brought up to a total of 5 packed cell volume (PCV). After centrifugation, the supernatant was discarded, and the cells were brought up to 3 PCV with hypotonic buffer and incubated on ice for 10 min. Cells were lysed using a dounce homogenizer and then centrifuged. […] The nuclei were gently mixed for 30 min before centrifuging. The supernatant (nuclear extract) was then dialyzed into storage buffer (20 mM HEPES pH 7.9, 100 mM KCl, 0.2 mM EDTA, 20% glycerol, 0.2 mM PMSF, 0.5 mM DTT). Protein concentration was determined using NanoDrop 8000 UV-Vis spectrophotometer (ThermoFisher Scientific).
IVS: All Ad2-derived sequences (Pellizzoni et al. (1998) Cell 95(5):615-24) were cloned into pcDNA3.1(+) vector (Promega) using 5′ EcoRI and 3′ Xbal restriction sites. The plasmids were linearized using Xbal and used as DNA templates in in vitro transcription reactions. The FtzΔi intron-less plasmid (Luo and Reed (1999) 96(26):14937-42) was linearized using EcoRI. All RNAs were in vitro transcribed and then purified using MEGAScript T7 (Invitrogen) and MegaClear (Invitrogen) kits, respectively. For splicing reactions using Ad2 variant pre-mRNAs, 1 μL reactions were prepared using 8 μg nuclear extracts prepared from HeLa S3, 2 ng pre-mRNA, 0.2 ng FTZΔi, and varying concentrations of compounds or DMSO. After a 15 min pre-incubation at 30° C., 1 μL splicing activation buffer (0.5 mM ATP, 20 mM creatine phosphate, 1.6 mM MgCl2) was added, and the reactions were incubated for 90 min at 30° C. The reactions were then quenched with 13 μL DMSO, and 25 nL was used for RT-qPCR. RT-qPCR reactions were prepared using TaqMan RNA-to-CT 1-step kit (Life Technologies), RNA from splicing reactions, Ad2 (forward: [sequence]; reverse: [sequence]; probe: [sequence]) and Ftz (forward: [sequence]; reverse: [sequence]; probe: [sequence]) mRNA primer-probe sets. Prism 7 (Graphpad) was used for non-linear regression curve fitting of the formed spliced product and normalized to the control (DMSO) sample.

N87 cells = assay: Cell viability CellTiter-Glo, N87; assay type: cell-based, human; conditions: unconjugated payload of the ADC
Method: as §2, §3

MCF7 cells = assay: Cell viability CellTiter-Glo, HER2-negative MCF7; conditions: unconjugated payload of the ADC
Method: HCC1954 (American Type Culture Collection (ATCC)) breast ductal carcinoma cells were plated at 2000 cells/well in flat bottom 96-well tissue culture plates (Corning) in a total volume of 90 μL tissue culture medium supplemented with 10% fetal bovine serum (ThermoFisher Scientific). Cells were treated with a 3-fold serial dilution of compound from 200 nM to 0.03 nM. Each concentration was tested in triplicate. At the time of treatment, a plate of untreated cells was evaluated using CellTiter-Glo®2.0 Luminescent Cell Viability Assay according to the manufacturer's recommendations (Promega; #G9241). CellTiter-Glo® 2.0 reagent was added to the medium, incubated, and assayed on an EnVision Multilabel Reader (PerkinElmer). Values represent time zero (TO). […] Using the luminescence value at time zero (TO), DMSO control growth (C), and test growth in the presence of compound (T144), the percentage growth was calculated at each of the compound concentrations levels. Percentage growth inhibition was calculated as: [(T144-T0)/(C-TO)]×100 for concentrations for which T144>/=TO or [(T144-T0)/T0]×100 for concentrations for which T144<TO. The dose response curve plots were generated using Prism 7 (Graphpad) and fit using nonlinear regression analysis and the log(inhibitor) versus response-variable slope (four parameters).
as §3

MOLP8 cells = assay: Cell viability, CD138-expressing MOLP8; assay type: cell-based; conditions: unconjugated payload of the ADC
Method: as §2

SMILES	Payload LD50 (PC3 cells)	CTGlo-AT S GMean LD50 (nM) 72 h THP1.1 (THP1.1)	efflux ratio at 2 h, 10 μM [1]	IC50 (Ad2.2 pre-mRNA splicing)	IC50 (Ad2.1 pre-mRNA splicing)	other results
CC[C@H](O)[C@@H](C)[C@H]1O[C@@H]1C[C@@](C)(O)/C=C/C=C(\C)[C@H]1OC(=O)C[C@H](O)CC[C@@](C)(OC(=O)N2CCNCC2)[C@@H](OC(C)=O)/C=C/[C@@H]1C [D8, (2S,3S,6S,7R,10R,E)-6-acetoxy-10-hydroxy-2-((R,2E,4E)-6-hydroxy-7-((2R,3R)-3-((2R,3S)-3-hydroxypentan-2-yl)oxiran-2-yl)-6-methylhepta-2,4-dien-2-yl)-3,7-dimethyl-12-oxooxacyclododec-4-en-7-yl piperazine-1-carboxylate]	177.783 nM	38.969 nM	15.9	9.03 nM	11.4 nM	Perm. Mean Caco-2 A-B Perm (10e-6 cm/s) (Caco-2 cells): 0.128 10e-6 cm/s; Perm. Mean Caco-2 B-A Perm (10e-6 cm/s) (Caco-2 cells): 2.027 10e-6 cm/s; Payload LD50 (HCC1954 cells): 11.175 nM; Payload Rmin (%) (HCC1954 cells): −80.463%; Payload LD50 (N87 cells): >200 nM; Payload LD50 (MCF7 cells): 181.521 nM; Payload Rmin (%) (MCF7 cells): −62.957%
CC[C@H](O)[C@@H](C)[C@H]1O[C@@H]1C[C@H](C)/C=C/C=C(\C)[C@H]1OC(=O)C[C@H](O)CC[C@@](C)(OC(C)=O)[C@@H](OC(=O)N2CCNCC2)/C=C/[C@@H]1C [D9]		3.56 nM	14	18.1 nM	20.2 nM	
CC[C@H](O)[C@@H](C)[C@H]1O[C@@H]1C[C@@](C)(O)/C=C/C=C(\C)[C@H]1OC(=O)C[C@H](O)CC[C@@](C)(O)[C@@H](OC(=O)N2CCN(C3CCCCCC3)CC2)/C=C/[C@@H]1C [D11, E7107]		8.086 nM		9.36 nM	10.5 nM	GI50 (THP1.1): 1.35 nM
CC[C@H](O)[C@@H](C)[C@H]1O[C@@H]1C[C@@](C)(O)/C=C/C=C(\C)[C@H]1OC(=O)C[C@H](O)CC[C@@](C)(O)[C@@H](OC(=O)N2CCNCC2)/C=C/[C@@H]1C [D12, (2S,3S,6S,7R,10R,E)-7,10-dihydroxy-2-((R,2E,4E)-6-hydroxy-7-((2R,3R)-3-((2R,3S)-3-hydroxypentan-2-yl)oxiran-2-yl)-6-methylhepta-2,4-dien-2-yl)-3,7-dimethyl-12-oxooxacyclododec-4-en-6-yl piperazine-1-carboxylate]						Perm. Mean Caco-2 A-B Perm (10e-6 cm/s) (Caco-2 cells): 0.17 10e-6 cm/s; Perm. Mean Caco-2 B-A Perm (10e-6 cm/s) (Caco-2 cells): 0.23 10e-6 cm/s; efflux ratio (in words) (Caco-2 cells; payload): low efflux ratio
CC[C@H](O)[C@@H](C)[C@H]1O[C@@H]1C[C@H](C)/C=C/C=C(\C)[C@H]1OC(=O)C[C@H](O)CC[C@@](C)(OC(=O)N2CCNCC2)[C@@H](OC(C)=O)/C=C/[C@@H]1C [D13]		3.358 nM	19.1	8.82 nM	11.3 nM	
CC(=O)N1CCC(n2nnc3c(F)cc(/C=C(\C)[C@H]4OC(=O)C[C@H](O)CC[C@H](C)[C@@H](OC(=O)N5CCNCC5)/C=C/[C@@H]4C)cc32)CC1 [D14]	>400 nM	25.594 nM	202	8.59 nM	10 nM	GI50 (THP1.1): 3.58 nM; Payload LD50 (N87 cells): >200 nM; Payload LD50 (MCF7 cells): 77.198 nM; Payload Rmin (%) (MCF7 cells): −61.886%; LD50 (nM) (payload) (MOLP8 cells): 8.5 nM; Rmin (%) (payload) (MOLP8 cells): −61%
CC[C@H](O)[C@@H](C)[C@H]1O[C@@H]1C[C@H](C)/C=C/C=C(\C)[C@H]1OC(=O)C[C@H](O)CC[C@@](C)(OC)[C@@H](OC(=O)N2CCNCC2)/C=C/[C@@H]1C [D18, (2S,3S,6S,7R,10R,E)-10-hydroxy-2-((S,2E,4E)-7-((2R,3R)-3-((2R,3S)-3-hydroxypentan-2-yl)oxiran-2-yl)-6-methylhepta-2,4-dien-2-yl)-7-methoxy-3,7-dimethyl-12-oxooxacyclododec-4-en-6-yl piperazine-1-carboxylate]	>400 nM	4.355 nM		12.7 nM	12.7 nM	GI50 (PC3 cells): 1.41 nM; Payload LD50 (HCC1954 cells): 0.787 nM; Payload Rmin (%) (HCC1954 cells): −90.055%; Payload LD50 (N87 cells): 2.993 nM; Payload LD50 (MCF7 cells): 7.697 nM; Payload Rmin (%) (MCF7 cells): −68.226%
CC[C@H](O)[C@@H](C)[C@H]1O[C@@H]1C[C@@](C)(O)/C=C/C=C(\C)[C@H]1OC(=O)C[C@H](O)CC[C@@](C)(OC)[C@@H](OC(=O)N(C)CCNC)/C=C/[C@@H]1C [D20, (2S,3S,6S,7R,10R,E)-10-hydroxy-2-((R,2E,4E)-6-hydroxy-7-((2R,3R)-3-((2R,3S)-3-hydroxypentan-2-yl)oxiran-2-yl)-6-methylhepta-2,4-dien-2-yl)-7-methoxy-3,7-dimethyl-12-oxooxacyclododec-4-en-6-yl methyl(2-(methylamino)ethyl)carbamate]		113.557 nM		8.75 nM	10.9 nM	
CC[C@H](O)[C@@H](C)[C@H]1O[C@@H]1C[C@@](C)(O)/C=C/C=C(\C)[C@H]1OC(=O)C[C@H](O)CC[C@@](C)(OC)[C@@H](OC(=O)N2CCNC(CCC(=O)O)C2)/C=C/[C@@H]1C (stereo partly drawn) [D22, 3-(4-((((2S,3S,6S,7R,10R,E)-10-hydroxy-2-((R,2E,4E)-6-hydroxy-7-((2R,3R)-3-((2R,3S)-3-hydroxypentan-2-yl)oxiran-2-yl)-6-methylhepta-2,4-dien-2-yl)-7-methoxy-3,7-dimethyl-12-oxooxacyclododec-4-en-6-yl)oxy)carbonyl)piperazin-2-yl)propanoic acid]		1594.636 nM		49.1 nM	66.3 nM	Papp B→A at 2 h, 10 μM ([1]; 10 μM, 2 hours, basolateral to apical, read-out: Permeability Mean Caco-2 B-A Perm (10e-Gcm/s)): 0.18 ×10⁻⁶ cm/s
C/C(=C\c1cc(F)cc(N2CCN(C(=O)Cn3cccn3)CC2)c1)[C@H]1OC(=O)C[C@H](O)CC[C@H](C)[C@@H](OC(=O)N2CCN(C)CC2)/C=C/[C@@H]1C [D26]		28.483 nM	2.58	14.3 nM	18.8 nM	
C/C(=C\c1cc(F)cc(N2CCN(S(=O)(=O)c3cnn(C)c3)CC2)c1)[C@H]1OC(=O)C[C@H](O)CC[C@H](C)[C@@H](OC(=O)N2CCNCC2)/C=C/[C@@H]1C [D28]	>400 nM					GI50 (PC3 cells): > 400 nM
C/C(=C\c1cc(F)cc(N2CCN(CC(=O)O)CC2)c1)[C@H]1OC(=O)C[C@H](O)CC[C@H](C)[C@@H](OC(=O)N2CCNCC2)/C=C/[C@@H]1C [D33, 2-(4-(3-fluoro-5-((E)-2-((2S,3S,6R,7S,10R,E)-10-hydroxy-3,7-dimethyl-12-oxo-6-((piperazine-1-carbonyl)oxy)oxacyclododec-4-en-2-yl)prop-1-en-1-yl)phenyl)piperazin-1-yl)acetic acid]		5202.992 nM		72.4 nM	33.4 nM	GI50 (THP1.1): 196 nM

Source: patent US12172986B2, “Splicing modulator antibody-drug conjugates and methods of use” (EISAI R&D MANAGEMENT CO., LTD., priority 2018, dated 2024)
